Laboratory results: ChEMBL document CHEMBL5653615 (J Biol Chem, 2013)

Tests used:
[1] = target: Calcium/calmodulin-dependent protein kinase type II subunit beta (Homo sapiens) (UniProt Q13554); assay: Inhibition of human CAMK2b at 18.6 nM by HotSpot assay relative to control
[2] = target: Ribosomal protein S6 kinase alpha-5 (Homo sapiens) (UniProt O75582); assay: Inhibition of human RPS6KA5 at 18.6 nM by HotSpot assay relative to control
[3] = target: Serine/threonine-protein kinase PAK 1 (Homo sapiens) (UniProt Q13153); assay: Inhibition of human PAK1 at 18.6 nM by HotSpot assay relative to control
[4] = target: T1, Tyrosine-protein kinase receptor TYRO3 (Homo sapiens) (UniProt Q06418); assay: Inhibition of human SKY at 18.6 nM by HotSpot assay relative to control
T1 sequence (whole entry): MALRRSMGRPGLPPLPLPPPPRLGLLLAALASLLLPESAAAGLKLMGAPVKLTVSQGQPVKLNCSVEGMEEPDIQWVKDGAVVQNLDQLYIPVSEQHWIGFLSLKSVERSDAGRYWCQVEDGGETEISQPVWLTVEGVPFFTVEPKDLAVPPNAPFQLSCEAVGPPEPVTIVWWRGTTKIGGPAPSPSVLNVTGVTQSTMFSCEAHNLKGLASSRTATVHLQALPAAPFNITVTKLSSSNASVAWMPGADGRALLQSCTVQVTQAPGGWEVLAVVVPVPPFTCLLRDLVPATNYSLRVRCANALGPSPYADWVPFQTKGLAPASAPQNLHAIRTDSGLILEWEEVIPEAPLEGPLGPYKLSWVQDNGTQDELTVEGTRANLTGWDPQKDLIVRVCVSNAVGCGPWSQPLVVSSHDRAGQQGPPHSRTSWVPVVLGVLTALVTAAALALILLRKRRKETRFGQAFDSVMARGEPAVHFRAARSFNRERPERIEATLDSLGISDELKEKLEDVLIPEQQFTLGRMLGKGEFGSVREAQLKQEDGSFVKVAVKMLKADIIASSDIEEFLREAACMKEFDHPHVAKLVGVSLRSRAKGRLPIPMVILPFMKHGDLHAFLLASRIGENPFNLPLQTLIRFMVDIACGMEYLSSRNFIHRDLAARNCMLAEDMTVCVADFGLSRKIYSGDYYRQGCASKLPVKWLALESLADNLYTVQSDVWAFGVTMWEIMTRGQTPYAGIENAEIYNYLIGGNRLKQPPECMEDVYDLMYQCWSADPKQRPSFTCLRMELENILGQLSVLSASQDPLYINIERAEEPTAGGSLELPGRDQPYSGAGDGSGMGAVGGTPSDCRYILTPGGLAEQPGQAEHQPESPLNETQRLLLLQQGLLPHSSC

[5] = target: Casein kinase I isoform gamma-3 (Homo sapiens) (UniProt Q9Y6M4); assay: Inhibition of human CK1g3 at 1.82 nM by HotSpot assay relative to control
[6] = target: Mitogen-activated protein kinase 3 (Homo sapiens) (UniProt P27361); assay: Inhibition of human ERK1 at 1.82 nM by HotSpot assay relative to control
[7] = target: G protein-coupled receptor kinase 4 (Homo sapiens) (UniProt P32298); assay: Inhibition of human GRK4 at 1.82 nM by HotSpot assay relative to control
[8] = target: Glycogen synthase kinase-3 alpha (Homo sapiens) (UniProt P49840); assay: Inhibition of human GSK3a at 1.82 nM by HotSpot assay relative to control
[9] = target: T2, Phosphorylase b kinase gamma catalytic chain, liver/testis isoform (Homo sapiens) (UniProt P15735); assay: Inhibition of human PHKg2 at 1.82 nM by HotSpot assay relative to control
T2 sequence (whole entry): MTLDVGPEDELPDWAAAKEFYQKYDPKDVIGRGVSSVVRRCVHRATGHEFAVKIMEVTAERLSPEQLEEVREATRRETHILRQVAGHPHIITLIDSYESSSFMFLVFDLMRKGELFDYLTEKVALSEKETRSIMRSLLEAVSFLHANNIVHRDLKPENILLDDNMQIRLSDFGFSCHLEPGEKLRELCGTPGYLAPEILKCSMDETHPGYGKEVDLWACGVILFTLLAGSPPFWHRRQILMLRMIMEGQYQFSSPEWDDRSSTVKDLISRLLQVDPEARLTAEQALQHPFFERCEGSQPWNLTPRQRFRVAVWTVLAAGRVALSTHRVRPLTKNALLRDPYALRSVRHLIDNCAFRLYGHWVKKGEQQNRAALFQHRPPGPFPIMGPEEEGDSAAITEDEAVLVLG

[10] = target: Protein kinase C beta type (Homo sapiens) (UniProt P05771); assay: Inhibition of human PKCb2 at 1.82 nM by HotSpot assay relative to control
[11] = target: T3, Inhibitor of nuclear factor kappa-B kinase subunit alpha (Homo sapiens) (UniProt O15111); conditions: dose 1.82 nM
T3 sequence (whole entry): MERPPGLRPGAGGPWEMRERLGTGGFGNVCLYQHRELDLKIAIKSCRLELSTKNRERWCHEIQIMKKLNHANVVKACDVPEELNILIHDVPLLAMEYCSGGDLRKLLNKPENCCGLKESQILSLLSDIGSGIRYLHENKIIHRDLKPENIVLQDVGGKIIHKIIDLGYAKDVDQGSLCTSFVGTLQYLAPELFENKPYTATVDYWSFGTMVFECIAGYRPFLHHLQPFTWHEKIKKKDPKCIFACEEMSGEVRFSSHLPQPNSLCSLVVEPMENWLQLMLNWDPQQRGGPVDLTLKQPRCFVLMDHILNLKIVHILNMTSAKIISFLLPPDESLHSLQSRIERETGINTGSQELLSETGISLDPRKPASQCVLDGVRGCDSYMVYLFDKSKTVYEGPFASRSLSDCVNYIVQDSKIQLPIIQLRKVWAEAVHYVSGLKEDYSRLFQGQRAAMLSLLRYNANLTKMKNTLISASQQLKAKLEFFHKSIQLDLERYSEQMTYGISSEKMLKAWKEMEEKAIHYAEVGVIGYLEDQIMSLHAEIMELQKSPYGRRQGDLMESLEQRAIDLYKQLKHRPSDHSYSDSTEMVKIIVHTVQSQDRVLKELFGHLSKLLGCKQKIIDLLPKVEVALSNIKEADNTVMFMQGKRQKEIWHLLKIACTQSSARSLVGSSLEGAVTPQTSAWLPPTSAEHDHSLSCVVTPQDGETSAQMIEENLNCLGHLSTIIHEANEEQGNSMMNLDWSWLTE
Description: Inhibition of human IKKa at 1.82 nM by HotSpot assay relative to control

[12] = target: Mitogen-activated protein kinase kinase kinase 7 (Homo sapiens) (UniProt O43318); conditions: dose 1.82 nM
Mitogen-activated protein kinase kinase kinase 7 (Homo sapiens), sequence (O43318 whole entry, looked up): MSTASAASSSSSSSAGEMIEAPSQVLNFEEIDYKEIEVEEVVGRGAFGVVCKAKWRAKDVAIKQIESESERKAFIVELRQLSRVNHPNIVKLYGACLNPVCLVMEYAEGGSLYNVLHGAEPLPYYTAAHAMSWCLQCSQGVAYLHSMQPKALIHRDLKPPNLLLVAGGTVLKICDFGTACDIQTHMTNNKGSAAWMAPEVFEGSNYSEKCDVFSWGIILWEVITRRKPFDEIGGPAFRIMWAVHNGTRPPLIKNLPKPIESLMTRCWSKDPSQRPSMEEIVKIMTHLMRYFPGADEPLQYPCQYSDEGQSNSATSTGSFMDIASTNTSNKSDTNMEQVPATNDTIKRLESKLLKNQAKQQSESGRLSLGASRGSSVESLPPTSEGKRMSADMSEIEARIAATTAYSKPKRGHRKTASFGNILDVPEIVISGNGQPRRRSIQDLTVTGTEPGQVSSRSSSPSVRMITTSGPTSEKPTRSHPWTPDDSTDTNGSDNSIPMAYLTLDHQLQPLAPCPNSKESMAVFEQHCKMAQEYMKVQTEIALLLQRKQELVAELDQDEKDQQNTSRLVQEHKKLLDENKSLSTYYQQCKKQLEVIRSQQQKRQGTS
Description: Inhibition of human TAK1 at 1.82 nM by HotSpot assay relative to control

Glycogen synthase kinase-3 alpha (Homo sapiens), sequence (P49840 2-483 limits assumed): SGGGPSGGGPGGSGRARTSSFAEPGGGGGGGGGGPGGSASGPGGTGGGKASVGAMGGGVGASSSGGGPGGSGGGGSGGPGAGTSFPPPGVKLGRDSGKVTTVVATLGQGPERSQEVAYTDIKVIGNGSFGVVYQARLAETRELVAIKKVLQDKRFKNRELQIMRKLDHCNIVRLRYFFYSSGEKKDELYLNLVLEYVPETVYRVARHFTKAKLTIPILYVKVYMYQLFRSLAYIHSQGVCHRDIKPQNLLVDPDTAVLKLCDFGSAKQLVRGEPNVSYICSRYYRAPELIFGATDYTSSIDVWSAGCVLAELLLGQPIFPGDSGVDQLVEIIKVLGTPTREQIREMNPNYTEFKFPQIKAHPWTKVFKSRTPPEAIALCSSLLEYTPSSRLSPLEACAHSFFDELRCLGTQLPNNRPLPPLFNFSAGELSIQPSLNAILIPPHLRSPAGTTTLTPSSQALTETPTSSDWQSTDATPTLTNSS
Casein kinase I isoform gamma-3 (Homo sapiens), sequence (Q9Y6M4 whole entry, looked up, canonical isoform): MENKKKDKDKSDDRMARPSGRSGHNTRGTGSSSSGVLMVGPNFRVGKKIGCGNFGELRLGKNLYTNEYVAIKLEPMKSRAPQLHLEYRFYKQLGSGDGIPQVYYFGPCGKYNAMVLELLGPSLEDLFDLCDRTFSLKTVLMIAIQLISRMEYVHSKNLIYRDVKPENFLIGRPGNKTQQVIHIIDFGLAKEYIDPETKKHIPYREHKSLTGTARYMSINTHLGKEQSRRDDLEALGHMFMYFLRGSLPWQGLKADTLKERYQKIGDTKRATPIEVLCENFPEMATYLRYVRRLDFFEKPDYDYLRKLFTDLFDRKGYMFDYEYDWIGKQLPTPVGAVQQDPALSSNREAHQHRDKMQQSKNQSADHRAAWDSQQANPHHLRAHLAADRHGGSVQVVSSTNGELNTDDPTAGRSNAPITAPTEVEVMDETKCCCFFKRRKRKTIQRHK
Ribosomal protein S6 kinase alpha-5 (Homo sapiens), sequence (O75582 whole entry, looked up): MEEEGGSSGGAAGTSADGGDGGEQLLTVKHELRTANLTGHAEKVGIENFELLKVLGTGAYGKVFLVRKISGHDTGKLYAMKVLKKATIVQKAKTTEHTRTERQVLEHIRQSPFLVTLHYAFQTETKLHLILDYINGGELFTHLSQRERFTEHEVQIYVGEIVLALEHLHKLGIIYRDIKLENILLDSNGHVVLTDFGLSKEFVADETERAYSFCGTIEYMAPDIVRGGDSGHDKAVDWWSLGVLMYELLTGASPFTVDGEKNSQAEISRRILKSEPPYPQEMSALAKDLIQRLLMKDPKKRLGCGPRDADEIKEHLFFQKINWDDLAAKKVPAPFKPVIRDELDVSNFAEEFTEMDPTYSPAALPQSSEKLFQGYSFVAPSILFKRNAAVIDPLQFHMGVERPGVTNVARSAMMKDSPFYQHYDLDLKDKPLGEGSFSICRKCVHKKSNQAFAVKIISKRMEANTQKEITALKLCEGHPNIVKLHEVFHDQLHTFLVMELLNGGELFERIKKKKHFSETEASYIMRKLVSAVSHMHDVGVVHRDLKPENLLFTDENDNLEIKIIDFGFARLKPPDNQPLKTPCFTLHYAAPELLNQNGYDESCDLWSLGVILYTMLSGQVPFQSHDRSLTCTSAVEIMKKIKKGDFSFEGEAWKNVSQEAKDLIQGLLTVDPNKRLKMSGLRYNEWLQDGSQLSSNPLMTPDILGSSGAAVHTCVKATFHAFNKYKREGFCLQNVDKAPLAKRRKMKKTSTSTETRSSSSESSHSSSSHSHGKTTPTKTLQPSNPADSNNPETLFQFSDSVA
G protein-coupled receptor kinase 4 (Homo sapiens), sequence (P32298 whole entry, looked up): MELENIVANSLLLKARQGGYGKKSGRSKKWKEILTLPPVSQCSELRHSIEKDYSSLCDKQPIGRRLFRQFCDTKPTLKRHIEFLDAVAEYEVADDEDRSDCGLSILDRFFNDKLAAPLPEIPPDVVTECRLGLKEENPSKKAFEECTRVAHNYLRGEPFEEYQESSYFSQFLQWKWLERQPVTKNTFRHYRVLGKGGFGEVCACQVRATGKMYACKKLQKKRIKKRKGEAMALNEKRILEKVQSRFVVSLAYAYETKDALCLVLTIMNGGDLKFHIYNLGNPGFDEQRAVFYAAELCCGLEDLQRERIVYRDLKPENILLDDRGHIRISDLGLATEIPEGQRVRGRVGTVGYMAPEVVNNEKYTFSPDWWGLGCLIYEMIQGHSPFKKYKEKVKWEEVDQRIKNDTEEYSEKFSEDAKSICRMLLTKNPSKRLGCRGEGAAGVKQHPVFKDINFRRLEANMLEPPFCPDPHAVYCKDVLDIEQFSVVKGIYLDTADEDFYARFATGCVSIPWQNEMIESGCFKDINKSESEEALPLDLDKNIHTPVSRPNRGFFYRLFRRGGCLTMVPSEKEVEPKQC
Serine/threonine-protein kinase PAK 1 (Homo sapiens), sequence (Q13153 whole entry): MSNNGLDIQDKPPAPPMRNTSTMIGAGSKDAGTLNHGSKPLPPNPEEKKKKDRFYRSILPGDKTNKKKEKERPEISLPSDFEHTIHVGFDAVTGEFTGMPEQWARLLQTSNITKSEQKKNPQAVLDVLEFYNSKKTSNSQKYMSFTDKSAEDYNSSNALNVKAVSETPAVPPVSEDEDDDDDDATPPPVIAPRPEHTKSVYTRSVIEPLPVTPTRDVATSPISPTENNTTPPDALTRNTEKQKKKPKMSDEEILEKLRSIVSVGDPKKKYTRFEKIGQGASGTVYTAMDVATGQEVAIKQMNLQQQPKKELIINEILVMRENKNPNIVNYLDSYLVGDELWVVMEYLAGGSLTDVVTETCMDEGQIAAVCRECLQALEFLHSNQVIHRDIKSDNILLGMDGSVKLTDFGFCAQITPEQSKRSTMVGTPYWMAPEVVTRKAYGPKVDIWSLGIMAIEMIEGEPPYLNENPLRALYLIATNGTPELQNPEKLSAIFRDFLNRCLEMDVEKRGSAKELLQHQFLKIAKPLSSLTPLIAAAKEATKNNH
Calcium/calmodulin-dependent protein kinase type II subunit beta (Homo sapiens), sequence (Q13554 whole entry): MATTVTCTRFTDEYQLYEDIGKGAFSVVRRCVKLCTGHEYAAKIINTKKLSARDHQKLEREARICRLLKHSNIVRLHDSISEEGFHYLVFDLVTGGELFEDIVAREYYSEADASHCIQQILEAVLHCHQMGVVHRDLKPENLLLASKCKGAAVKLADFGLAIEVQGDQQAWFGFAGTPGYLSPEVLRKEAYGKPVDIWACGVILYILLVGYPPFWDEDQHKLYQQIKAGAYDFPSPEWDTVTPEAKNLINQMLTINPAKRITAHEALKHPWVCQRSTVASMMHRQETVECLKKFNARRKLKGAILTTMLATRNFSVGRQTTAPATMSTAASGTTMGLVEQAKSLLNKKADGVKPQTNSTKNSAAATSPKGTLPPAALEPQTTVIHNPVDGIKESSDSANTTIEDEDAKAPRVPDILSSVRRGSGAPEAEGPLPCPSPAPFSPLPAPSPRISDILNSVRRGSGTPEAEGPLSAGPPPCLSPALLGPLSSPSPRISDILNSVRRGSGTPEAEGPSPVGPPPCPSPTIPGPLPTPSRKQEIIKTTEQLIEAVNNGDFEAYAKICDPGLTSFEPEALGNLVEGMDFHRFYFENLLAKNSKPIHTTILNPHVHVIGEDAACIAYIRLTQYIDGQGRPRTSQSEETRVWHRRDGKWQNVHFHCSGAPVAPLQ
Mitogen-activated protein kinase 3 (Homo sapiens), sequence (P27361 whole entry): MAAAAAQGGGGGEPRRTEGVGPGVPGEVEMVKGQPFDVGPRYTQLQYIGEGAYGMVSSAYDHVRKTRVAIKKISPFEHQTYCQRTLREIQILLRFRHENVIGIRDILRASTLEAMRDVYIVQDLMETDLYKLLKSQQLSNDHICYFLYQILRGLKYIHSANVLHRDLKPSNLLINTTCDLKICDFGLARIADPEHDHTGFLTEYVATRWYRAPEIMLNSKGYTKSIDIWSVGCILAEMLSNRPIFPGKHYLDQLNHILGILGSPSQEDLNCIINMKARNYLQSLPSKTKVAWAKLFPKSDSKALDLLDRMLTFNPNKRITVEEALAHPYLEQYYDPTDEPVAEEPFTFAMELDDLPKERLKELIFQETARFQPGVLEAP

inhibition [1] | inhibition [2] | inhibition [3] | inhibition [4] | inhibition [5] | inhibition [6] | inhibition [7] | inhibition [8] | inhibition [9] | inhibition [10] | inhibition [11] | inhibition [12] | Structure (SMILES)
-1.75% | -5.75% | -0.8% | 1.42% |  |  |  |  |  |  |  |  | C[C@]1(O)C[C@@H](c2nc(-c3ccc4ccc(-c5ccccc5)nc4c3)c3c(N)nccn32)C1
 |  |  |  | 0.91% | -2.81% | 0.72% | 4.1% | -4.64% | -3.58% | 3.74% | 3.35% | C[C@@]1(C(=O)Nc2ccc(F)nc2)CCCN1c1nc(Nc2cc(C3CC3)n[nH]2)c2cccn2n1
